The values below come from patent publication US8685372B2, “Peptides and aptamers for targeting of neuron or nerves” (The Regents of the University of California, priority 2009, dated 2014).

In series [1] the test system is sciatic nerve. In words: Effect of nerve injury (crush, devascularization) on labeling. The class given is in vivo, mice. As to the method: The ability of peptides to label peripheral nerves following nerve crush injury was evaluated in mice using SEQ ID NO:25. […] (Occasionally, nerve labeling immediately at the site of injury was slightly diminished compared to nerve labeling several centimeters away from the site of injury (FIG. 6D), but this observation was highly variable (FIGS. 6B,F) and not statistically significant (FIG. 6I)).
Wild type mice were anesthetized and the left sciatic nerve exposed and crushed with microforceps for 3-5 seconds. Muscular contractions during the crush after immediately afterwards were monitored to ensure uniformity of the injury. The skin incision was then closed and mice returned to their cages to recover. At varying times after crush injury, intravenous SEQ ID NO:25 (150 nmoles) was administered. Two to three hours after intravenous SEQ ID NO:25 treatment, the mice were anesthetized, bilateral sciatic nerves exposed and quantitative fluorescence microscopy was used to measure nerve fluorescence. Nerve and adjacent muscle fluorescence were measured using Image J software by measuring standardized boxed regions. Crushed and contralateral control nerve fluorescence were compared for each animal.

In series [2] the test system is sciatic nerves. In words: In vivo nerve labeling with fluorescently labeled peptides (nerve versus adjacent non-nerve tissue). Also on record: species or system mice. As to the method:
To test the nerve binding affinity of each of the isolated peptide sequences in vivo, carboxyfluorescein (FAM)-labeled peptides were injected intravenously into living mice. Following a wash-out period, the contrast between nerve and muscle binding of the labeled peptides was evaluated.
Wild-type albino C57BL6 (Jackson Laboratory) or SKH1 (Charles River Laboratories) mice were treated intravenously with 150 nmoles of fluorescently labeled SEQ ID NO:4 via tail vein injection. Following a 2-3 hour wash-out period for SEQ ID NO:25 or 5-6 hours for SEQ ID NO:31, mice were anesthetized with ketamine and midazolam (80 mg/kg intraperitoneally), a skin incision was made over the dorsal surface of the hind, legs and the sciatic nerves exposed bilaterally. […] Nerves and adjacent non-nerve tissue was delineated with Image J and relative fluorescence was measured. Following background subtraction using dark current measurements and measurements of a standard, the ratios of peptide binding to nerve versus adjacent non-nerve tissue were calculated.

Series [3] can be described thus: Peptide biodistribution and metabolism (organ fluorescence, LC-MS and MALDI of urine). The class given is in vivo, mice. As to the method:
(§1) To evaluate the biodistribution of the peptide following systemic administration, organs were harvested from mice treated with SEQ ID NO:4 and fluorescence uptake was evaluated. […] To evaluate the metabolism of the peptide as it passed through the renal system, liquid chromatography-mass spectrometry (LC-MS, Agilent) tracing was used to compare urine obtained from mice injected with SEQ ID NO:25 or SEQ ID NO:31 intravenously versus urine from normal mice spiked with the native SEQ ID NO:25 or SEQ ID NO:31. […] Next, matrix-assisted. laser desorption/ionization (MALDI) was used to evaluate the nature of the modification to the peptide as it was metabolized.
as §1, with “NO:25 and” for “NO:25 or”, “ID NO:3” for “ID NO:31”, “ID NO:25.” for “ID NO:25 or SEQ ID NO:31.”, “Next, matrix-assisted” for “Next, matrix-assisted.”

Series [4] in a line: Generalized toxicity: activity, behavior and weight gain. The format is in vivo, mice. As to conditions: single intravenous injection of 15-5,000 nmoles, up to 8 weeks of monitoring. As to the method:
To evaluate generalized toxicity following peptide administration, the generalized activity, behavior and weight gain of mice after a single intravenous injection of 15-5,000 nmoles of SEQ ID NO:25 was studied.
Female 8 week-old SKH1 mice (average weight 25 g) were treated with varying amounts of SEQ ID NO:25 ranging from 15-5,000 nmoles. Generalized activity, behavior and weight gain were evaluated following single intravenous injection of 15-5,000 nmoles of […] on a daily basis for 3 clays following injection. Thereafter, the mice were monitored three times per week for 8 weeks.

Series [5] deals with sciatic nerves. In words: In vivo nerve labeling with fluorescently labeled peptides (nerve versus adjacent non-nerve tissue). Set-up: species or system mice. As to conditions: facial nerve, brachial plexus, sciatic nerve.
Series [6] concerns sciatic nerves and surrounding non-nerve tissue. The format is in vivo, mice. The text has this:
To evaluate the time course of peptide binding to nerve tissue, sciatic nerves and surrounding non-nerve tissue in living mice were imaged before and after intravenous administration of SEQ ID NO:25, Prior to administration of SEQ ID NO: 25 (FIG. 3A), there was little contrast of the nerve (arrowheads) in relation to surrounding non-nerve tissue. Within seconds following intravenous administration of SEQ ID NO:25 (FIG. 3B), the fluorescent injectate could be seen leaking from capillaries (arrows), including capillaries associated with the sciatic nerves (insert). […] Useful contrast between nerve and surrounding muscle begins to develop by 2-3 hours after intravenous injection (FIG. 3E) and lasts several hours (FIG. 3F). […] Serum half-life was calculated at ˜10 minutes.
Female 8 week-old SKH1 mice were anesthetized with ketamine and midazolam and a skin incision was made over the dorsal surface of the hind legs and the sciatic nerves exposed. A preinjection image was taken a dissecting microscope (Lumar Zeiss) and a monochrome camera (Coolsnap). The mice were treated intravenously with […] of SEQ ID NO:25 via, tail vein injection. Sequential fluorescence imaging was then performed as described above: excitation 470/40 nm, emission 525/50 nm, exposure 15 milliseconds-5 seconds. Nerves and adjacent non-nerve tissue were delineated with Image J and relative fluorescence was measured. Quantification of fluorescence was then performed following subtraction of dark current and normalizing to a standard.

For series [7], the system named is human recurrent laryngeal nerve. In words: Human nerve labeling: resected recurrent laryngeal nerves and adjacent muscle incubated with peptide. The format is binding. As to the method: To evaluate whether or not SEQ ID NO:25 could selectively bind human nerves as compared to non-nerve tissue, freshly resected recurrent laryngeal nerves and adjacent muscle obtained from patients undergoing total laryngectomy for laryngeal cancer were incubated with SEQ ID NO:25. […] This binding pattern is similar to the binding pattern observed in mice.
To evaluate whether or not SEQ ID NO:25 could selectively bind human nerves as compared to non-nerve tissue, freshly resected recurrent laryngeal nerves and adjacent muscle obtained from patients undergoing total laryngectomy for laryngeal cancer were incubated with SEQ ID NO:25 at […] for 15 minutes and washed in saline for 15 minutes each. The nerve and muscle segments were then placed on a black non-fluorescent plate and imaged (Maestro, CRI). The nerve segments were then embedded in Tissue-Tek®, frozen and cryosectioned. 7-10 μm cryosections were then. imaged with standard fluorescence microscopy. Adjacent sections were stained with hematoxylin and eosin (H&E) and imaged.

Series [8] concerns dissected nerve tissue. As to the kind of experiment: In vitro nerve binding: dissected nerve tissue incubated with peptide. Set-up: species or system mice. As to conditions: 100 nM peptide, one hour incubation.
Series [9] deals with MBP. As to the method:
To test the nerve binding affinity of each of the isolated peptide sequences in vitro, dissected nerve tissue was removed from mice and incubated for one hour with 100 nM of each peptide, including a control peptide made up of amino acids that were contained within the various phages selected and sequenced, but in a mixed-up order and designed without repeating any single amino acid except for glycine (which was added to the C-terminus as a flexible linker).

Residues, ends and D or L forms follow the SMILES beside them. *: point of attachment. 5FAM = O=C1OC2(c3ccc(O)cc3Oc3cc(O)ccc32)c2ccc(C(=O)*)cc21

For the compound `CC(=O)N[C@@H](CO)C(=O)N[C@@H](Cc1c[nH]cn1)C(=O)N[C@@H](CO)C(=O)N[C@@H](CC(N)=O)C(=O)N[C@H](C(=O)N[C@@H](CCC(N)=O)C(=O)N[C@H](C(=O)N[C@@H](CC(C)C)C(=O)N[C@@H](C)C(=O)N[C@@H](CCCCN)C(=O)N[C@@H](C)C(=O)N1CCC[C@H]1C(=O)N[C@@H](CCC(=O)O)C(=O)N[C@@H](Cc1c[nH]cn1)C(=O)N[C@H](C(=O)NCC(=O)N[C@@H](CCCCNC(=O)c1ccc2c(c1)C(=O)OC21c2ccc(O)cc2Oc2cc(O)ccc21)C(N)=O)[C@@H](C)O)[C@@H](C)O)[C@@H](C)O` [SEQ ID NO:25, acetyl-SHSNTQTLAKAPEHTGK(5,6FAM)-amide] (Ac-SHSNTQTLAKAPEHTGK(5FAM)-NH2), the “nerve labeling compared to contralateral control nerve” value in [1] (1 day after crush injury) is given as “intact”. Moreover, in [1] (3 days after crush injury), the “decrease of nerve labeling compared to contralateral control nerve” value is recorded as 40%. In series [1] (7 days after crush injury), the “nerve labeling compared to contralateral control nerve” value is “returned to control levels”. The “nerve fluorescence compared to contralateral control side” value in series [1] (immediately following nerve devascularization) is listed as “highly diminished”. The Nerve contrast entry in series [2] (derivatives of peptide SEQ ID NO: 4) is reported as “High”. The “native peptide detectable in urine of intravenously injected mice” value in [3] (LC-MS) was “none”. Further, the “only fluorescently labeled entity identified in urine” value in series [3] (MALDI) is on record as “lysine-FAM”. In series [4], the “generalized activity, behavior and weight gain versus uninjected/control mice” value was “did not have any apparent changes”. The “systemic survey of nerves labeled” value in [5] is “all nerves were brightly labeled”. Moreover, the “time at which useful contrast between nerve and surrounding muscle begins to develop” value in [6] (after intravenous injection) fell in the range of 2 to 3 h. In addition, the “nerve to muscle contrast ratio” value in series [6] (by 4-5 hours post-injection) was 8-10 fold. Also, in [6] (by 24 hrs post-injection), the “visible contrast between nerve and muscle” value is “all visible contrast between nerve and muscle had disappeared”. Besides, in [6] (mouse, in vivo, iv), the “time of highest muscle fluorescence” value is recorded as “highest immediately following intravenous administration” and the “time of peak nerve fluorescence post-administration” value is on record as “around 10 minutes”. Also, the “binding to human nerves as compared to adjacent muscle” value in [7] (50 μM for 15 minutes) is listed as “Selective binding”. The “pattern of nerve binding in human tissue” value in [7] (tissue sections) is “connective tissue surrounding the nerve, i.e. epineurium, perineurium, and endoneurium”.
For “TYTDWLNFWAWP (peptide that specifically binds to a neuron, nerve, or component of either) [SEQ ID NO:2]”, the “nerve to muscle contrast” value in series [2] (FAM-labeled peptides intravenously, living mice, after wash-out) is listed as “little significant nerve-to muscle contrast”. Also, in [8], the “uptake/binding to dissected nerve tissue compared to no peptide or control peptide” value is “little increase”. For the same compound, the “increase in binding to MBP crosslinked beads compared to control beads (with no MBP)” value in series [9] is 10 fold.
